Results from paper PMC7282810, “Existence and functions of a kisspeptin neuropeptide signaling system in a non-chordate deuterostome species” (eLife, 2020).
Entries after “also recorded” stand apart in the source; their conditions may differ. *1 amine or outer side, *2 acyl side, *3 side chain or, on linkers, in order; H or OH if unused. Where a SMILES comes first, the peptide text is derived from it. Bridges are numbered along the chain shown (N, C = ends). [ ]: non-standard residue; d: D form. The star is where a group is joined. Leu(3R-OH,Nα-propionyl) = CCC(=O)N[C@H](C(=O)*)[C@H](O)C(C)C; X1 = CC(C)[C@@H](O[*:3])[C@H](N[*:1])C(=O)[*:2]; NMeT = CN[C@H](C(=O)O)[C@@H](C)O; dPhLac = O=C(O)[C@H](O)Cc1ccccc1; NMeA = CN[C@@H](C)C(=O)O; NMeDha = C=C(NC)C(=O)O

Experiments:
AjKissR1 = target: T1, AjKissR1 (Apostichopus japonicus, UniProt A0A5B7LK60); assay: cell-based; type: cell-based; settings: for Potency in triggering intracellular Ca2+ mobilization via AjKissR1 (in words): HEK293, Fura-2/AM, vertebrate kisspeptins and FITC-AjKiss1a at 1.0 μM; for Effect of inhibitor pre-treatment on AjKiss1a/AjKiss1b-elicited Ca2+ mobilization (in words): 100 nM AjKiss1a or AjKiss1b, pre-treated 12 hr PTX 100 ng/mL, or 1 hr FR900359 1.0 μM, U73122 10 μM, BAPTA-AM 100.0 μM, EGTA 5.0 mM
T1 sequence (A0A5B7LK60 1-378): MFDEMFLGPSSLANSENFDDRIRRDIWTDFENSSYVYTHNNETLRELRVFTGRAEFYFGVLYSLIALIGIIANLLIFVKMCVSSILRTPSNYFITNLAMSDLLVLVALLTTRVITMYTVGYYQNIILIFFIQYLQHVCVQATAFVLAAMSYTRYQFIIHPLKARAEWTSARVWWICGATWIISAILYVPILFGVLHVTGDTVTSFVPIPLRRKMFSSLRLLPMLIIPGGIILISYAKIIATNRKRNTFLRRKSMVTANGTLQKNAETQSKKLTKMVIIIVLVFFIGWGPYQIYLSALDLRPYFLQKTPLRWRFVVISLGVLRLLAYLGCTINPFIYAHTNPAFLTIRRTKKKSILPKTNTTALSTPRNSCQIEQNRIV
Method: (§1) The fluorescent Ca^2+ indicator Fura-2/AM was used to detect intracellular calcium flux ([Li et al., 2010]). Briefly, the HEK293 cells expressing the AjKissR1, AjKissR2 or vertebrate kisspeptin receptor were washed twice with PBS and suspended at 5 × 10^6 cells/mL in Hanks’ balanced salt solution. The cells were then loaded with 3.0 μM Fura-2/AM for 30 min and washed twice in Hanks’ solution. They were then stimulated with the indicated concentrations of different predicted A. japonicus kisspeptins or vertebrate kisspeptins. Finally, intracellular calcium flux was measured for 60 s, by determining the ratio of excitation wavelengths at 340 and 380 nm using a fluorescence spectrometer (Infinite 200 PRO, Tecan, Männedorf, Switzerland). All of the experiments for measuring Ca^2+ mobilization were repeated independently at least three times.

AjKissR2 = target: T2, AjKissR2 (Apostichopus japonicus, UniProt A0A5B7LIE4); assay: cell-based; type: cell-based; settings: for Potency in triggering intracellular Ca2+ mobilization via AjKissR2 (in words): HEK293, Fura-2/AM, vertebrate kisspeptins and FITC-AjKiss1a at 1.0 μM; for Effect of inhibitor pre-treatment on AjKiss1a/AjKiss1b-elicited Ca2+ mobilization (in words): 100 nM AjKiss1a or AjKiss1b, pre-treated 12 hr PTX 100 ng/mL, or 1 hr FR900359 1.0 μM, U73122 10 μM, BAPTA-AM 100.0 μM, EGTA 5.0 mM
T2 sequence (A0A5B7LIE4 1-327): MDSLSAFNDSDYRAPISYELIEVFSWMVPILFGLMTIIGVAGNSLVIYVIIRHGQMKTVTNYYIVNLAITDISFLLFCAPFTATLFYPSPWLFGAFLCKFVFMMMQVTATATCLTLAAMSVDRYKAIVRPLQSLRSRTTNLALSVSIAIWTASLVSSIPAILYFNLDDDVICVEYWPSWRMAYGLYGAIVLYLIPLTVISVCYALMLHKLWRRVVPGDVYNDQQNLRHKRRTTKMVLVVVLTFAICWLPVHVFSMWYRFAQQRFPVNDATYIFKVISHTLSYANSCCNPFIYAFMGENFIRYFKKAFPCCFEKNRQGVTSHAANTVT
Method: as §1

| Compound | Potency in triggering intracellular Ca2+ mobilization via AjKissR1 (in words) (AjKissR1) | Potency in triggering intracellular Ca2+ mobilization via AjKissR2 (in words) (AjKissR2) | Effect of inhibitor pre-treatment on AjKiss1a/AjKiss1b-elicited Ca2+ mobilization (in words) (AjKissR1) | Effect of inhibitor pre-treatment on AjKiss1a/AjKiss1b-elicited Ca2+ mobilization (in words) (AjKissR2) |
| --- | --- | --- | --- | --- |
| AHYRTLPF-NH2 [AjKiss1a-10, truncated peptide of AjKiss1a] | failed to activate | failed to activate |  |  |
| YNWNSFGLRF-NH2 [HsKiss1-10, synthetic human kisspeptin decapeptide, reference compound] | higher potency; also recorded: potent | potent |  |  |
| O=C(O)CN(CCOCCOCCN(CC(=O)O)CC(=O)O)CC(=O)O [EGTA, reference compound] |  |  | significantly attenuated | significantly attenuated |
| C=C1C(=O)N[C@@H](C)C(=O)N(C)[C@@H](C)C(=O)N[C@@H]([C@H](OC(=O)[C@@H](NC(=O)CC)[C@H](O)C(C)C)C(C)C)C(=O)N(C)[C@@H]([C@@H](C)OC)C(=O)O[C@H](C(C)C)[C@H](NC(C)=O)C(=O)O[C@H](Cc2ccccc2)C(=O)N1C [FR900359, reference compound] (Ac-[X1][dPhLac][NMeDha]A[NMeA][X1](Leu(3R-OH,Nα-propionyl))[NMeT](Me); ester 1-C) |  |  | completely blocked | completely blocked |
| FITC–AGSLDc < CLEASC > EDVERRGRQPNRNAHYRTLPF-NH2 (disulfide) [FITC–AjKiss1a] | comparable to that induced by the wild-type neuropeptide | comparable to that induced by the wild-type neuropeptide |  |  |
| YNLNSFGLRY-NH2 [DrKiss1-10, synthetic zebrafish kisspeptin decapeptide, reference compound] | much lower potency; also recorded: potent | higher potency than that of HsKiss1-10; also recorded: potent |  |  |
| GRQPNRNAHYRTLPF-NH2 [AjKiss1a-15, truncated peptide of AjKiss1a] | failed to activate | failed to activate |  |  |
| CC(=O)OCOC(=O)CN(CC(=O)OCOC(C)=O)c1ccccc1OCCOc1ccccc1N(CC(=O)OCOC(C)=O)CC(=O)OCOC(C)=O [BAPTA-AM, 1,2-bis(o-aminophenoxy)ethane N,N,N',N'-tetraacetic acid acetoxymethyl ester, reference compound] |  |  | significantly attenuated | significantly attenuated |
| HsNPS: human neuropeptide S, as a negative control (SFRNGVGTGMKKTSFQRAKS) [reference compound] | no potency | no potency |  |  |
| YNVNSFGLRF-NH2 [XtKiss1b-10, synthetic frog kisspeptin decapeptide, reference compound] | higher potency; also recorded: potent | higher potency than that of HsKiss1-10; also recorded: potent |  |  |
| FNYNPFGLRF-NH2 [DrKiss2-10, synthetic zebrafish kisspeptin decapeptide, reference compound] | much lower potency; also recorded: potent | higher potency than that of HsKiss1-10; also recorded: potent |  |  |
